In patent US20200390100A1, “SUBSTITUTED N-HETEROCYCLYL- AND N-HETEROARYL-TETRAHYDROPYRIMIDINONES AND THE SALTS THEREOF, AND THE USE OF SAME AS HERBICIDAL ACTIVE SUBSTANCES” (Bayer Aktiengesellschaft, priority 2017, published 2020):

Experiments:
Matricaria inodora = assay: Herbicidal post-emergence action (Part 2), 1280 g/ha; assay type: in vivo; details: application rate 1280 g/ha, rated visually after about 3 weeks, Table C6
In short: (§1)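 Scoring: visual, % activity against untreated controls after ~3 weeks, with death counted as 100%. Application was a post-emergence foliar spray to one-leaf-stage weeds in greenhouse pots.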

Amaranthus retroflexus = assay: as above; assay type: in vivo; details: application rate 1280 g/ha, rated visually after about 3 weeks, Table C5
In short: as §1

Echinochloa crus-galli = assay: as above; assay type: in vivo; details: post-emergence (Part 2), application rate 1280 g/ha, rated visually after about 3 weeks vs untreated controls
In short: as §1

Poa annua = assay: as above; assay type: in vivo; details: application rate 1280 g/ha, rated visually after about 3 weeks, Table C2
In short: as §1

Abutilon theophrasti = assay: as above; assay type: in vivo; details: application rate 1280 g/ha, rated visually after about 3 weeks, Table C4
In short: as §1

Stellaria media = assay: as above; assay type: in vivo; details: application rate 1280 g/ha, rated visually after about 3 weeks, Table C7
In short: as §1

Setaria viridis = assay: as above; assay type: in vivo; details: application rate 1280 g/ha, rated visually after about 3 weeks, Table C3
In short: as §1

Polygonum convolvulus = assay: Pre-emergence herbicidal action, greenhouse, 320 g/ha; assay type: in vivo; details: application rate 320 g/ha, scored visually after about 3 weeks vs untreated controls
In short: (§2)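 Visual % damage versus untreated pots was read about 3 weeks after treatment, where 0% means growth as in controls and 100% means dead plants. Compounds were applied as WP or EC in water plus 0.5% additive onto the covering soil over freshly sown seeds.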

Digitaria sanguinalis = assay: as above; assay type: in vivo; details: application rate 320 g/ha, Table B9
In short: as §2

photosystem II (PS II) = target: T1, photosystem II (PS II) (Spinacia oleracea, UniProt P69560); assay: Measurement of PS II activity in thylakoid membranes (DCPIP reduction); assay type: biochemical, spinach; details: PS II activity in spinach thylakoid membranes, Table E1; read-out: Effect
T1 construct: the chloroplasts were osmotically ruptured and the thylakoid membranes were then obtained by centrifugation; from tissue; host or cells: fresh spinach leaves; thylakoid membrane preparation from isolated chloroplasts
In short: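 Thylakoid membranes from osmotically ruptured spinach chloroplasts in 50 mM phosphate pH 6.8, 10 mM KCl; compounds added from 100 μM DMSO solution (2.5% DMSO final), 120 μM DCPIP final. DCPIP reduction under light tracked as absorbance decrease at 595 nm over 10 min at 22 °C; % inhibition binned, metribuzin as plate standard.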

## CC1CC(O)N(c2cc(C(C)(C)C)on2)C(=O)N1C (stereo not shown) [I.41-162, 1-(5-tert-Butyl-1,2-oxazol-3-yl)-6-hydroxy-3,4-dimethyltetrahydropyrimidin-2(1H)-one]
Matricaria inodora
  Matricaria inodora: 100%
Amaranthus retroflexus
  Amaranthus retroflexus: 100%
Echinochloa crus-galli
  Echinochloa crus-galli: 100%
Poa annua
  Poa Annua: 100%
Abutilon theophrasti
  Abutilon theophrasti: 100%
Stellaria media
  Stellaria media: 100%
Setaria viridis
  Setaria viridis: 100%
Polygonum convolvulus
  Polygonum convolvulus (efficacy in %): 100%
Digitaria sanguinalis
  Digitaria sanguinalis (efficacy in %): 100%
Photosystem II (PS II)
  inhibition at 100 µM: 70 to 90%
